Consider nine molecules from US20240425484A1, “INHIBITORS OF TYK2” (Atomwise Inc., priority 2023, published 2024).

Data set [1] is described as follows: Mouse pharmacokinetic study, oral administration. The note with it: male, mouse plasma, PO at 5 mg/kg; for half-life: read-out: Half-life t1/2; for Cmax: read-out: Maximum plasma concentration Cmax; for AUC(0-inf): read-out: Total systemic exposure AUCinf. It is filed as in vivo. The protocol:
The following example describes the methods used to evaluate the pharmacokinetics of TYK2 inhibitors in vivo following dosing of a compound of the invention.
The pharmacokinetics of test compounds were evaluated in either male CD-1 mice or male C57BL/6 mice when administered by oral gavage and IV bolus injection. The animals were allowed free access to food and water before administration. The plasma samples were analyzed by LC-MS/MS and the concentration of test compound at each time point was determined by linear regression. Pharmacokinetic parameters were calculated from the plasma concentrations by non-compartmental modeling using WinNonlin 8.2.
Oral composition. To prepare a pharmaceutical composition for oral delivery, the test articles described herein were dissolved in DMSO and then mixed with necessary volume of PEG400 followed by 0.9% sterile saline or 5% dextrose in water or 5% Kolliphor HS 15 in saline to provide the final concentrations of 0.5 mg/mL or 1 mg/mL (Table 8). The resultant mixtures were suitable for oral administration.
The PK parameters measured in mouse plasma after treatment with TYK2 inhibitor compounds via PO (oral administration) at 5 mg/kg are summarized below in Tables 9-11.

A further data set addresses T1, TYK2-JH2 (Homo sapiens, UniProt P29597).
T1 construct: TYK JH2 enzyme mix (ChemPartner: CP20210818A-BV); purchased ChemPartner CP20210818A-BV
Briefly: TYK2-JH2 HTRF binding assay (ligand efficiency). Particulars: calculated (Equation 1) from IC50 of the TYK-JH2 binding assay. The procedure: The following example describes the TYK2-JH2 HTRF binding assay used to determine the ligand efficiency of the TYK2 inhibitors.
To calculate ligand efficiency, Equation 1 is applied: […]
in which IC50 comes from the binding assay used to determine compound potency.
TYK JH2 enzyme mix (ChemPartner: CP20210818A-BV), tracer (ChemPartner: CP-0029472-051) and mAb Anti-6HIS Tb cryptate Gold (Cisbio: Cat No. 61HI2TLA) mix were prepared in assay buffer (10 mM MgCl2, 20 mM HEPES pH 7.5, 0.01% Triton X-100, 1 mM DTT). Compounds diluted in DMSO (Final Concentrations 0.1 to 0.000005 [μM]) and enzyme mix (0.5 nM Final Concentration) were added to 384 well plates, briefly centrifuged and incubated at room temperature for 10 minutes. After incubation, tracer mix (Tracer-35 nM final concentration); (MAb Anti-6HIS Tb cryptate Gold-0.5X final)) was added, briefly centrifuged then incubate at room temperature 60 minutes. After incubation, plates were read by Envision TR-FRET (Ex340/Em495/520) protocol (PerkinElmer-Envision 2104 multilabel plate reader).

Data set [2] in a line: Brain exposure pharmacokinetic study in Sprague Dawley rats. It is filed as in vivo, rat. Particulars: male Sprague Dawley rats, oral gavage 10 mg/kg, plasma, CSF. The protocol:
The brain exposure of exemplary compounds, e.g., 1, 2, and 4 were evaluated in male Sprague Dawley rats after oral gavage administration at 10 mg/kg. The formulation was 5% DMSO+10% PEG400 in saline. Rats were fasted overnight with food returned 4 hours post-dose. CSF was collected by direct needle puncture into the cisterna magna.
(§1) For both rat and mouse studies, brain tissue was washed with 3 volumes of saline prior to homogenization. Brain tissue was homogenized with 3 volumes (v/w) of phosphate buffered saline. Plasma, brain homogenate, and CSF samples (rat only) were analyzed by LC-MS/MS and the concentration of test compound at each time point was determined by linear regression.
(§2) Pharmacokinetic parameters were calculated from the plasma, brain, and CSF concentrations by non-compartmental modeling using WinNonlin 8.2.

Data set [3] is described as follows: Brain exposure pharmacokinetic study in C57BL/6 mice. The note with it: male C57BL/6 mice, oral gavage 5 mg/kg, plasma. Format: in vivo, mouse. The protocol:
The brain exposure of 18 was evaluated in male C57BL/6 mice after oral gavage administration at 5 mg/kg. The formulation was 10% DMSO+40% PEG400 in saline. Mice were provided free access to food and water without fasting. Terminal sample collection of plasma and brain tissue were collected at […], 0.25, 0.5, 1, 2, and 4 hours post-dose with n=3 at each timepoint.
as §1, §2

T1 sequence (P29597 589-875 limits assumed): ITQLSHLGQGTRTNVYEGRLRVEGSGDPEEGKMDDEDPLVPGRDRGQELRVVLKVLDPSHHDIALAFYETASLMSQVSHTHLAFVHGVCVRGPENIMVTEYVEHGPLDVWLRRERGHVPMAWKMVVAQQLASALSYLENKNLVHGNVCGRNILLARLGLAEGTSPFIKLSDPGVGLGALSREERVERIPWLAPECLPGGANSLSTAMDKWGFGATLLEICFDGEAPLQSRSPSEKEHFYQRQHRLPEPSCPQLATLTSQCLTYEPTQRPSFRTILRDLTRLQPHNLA

For `CC(c1ccc(Nc2cc(Nc3ncccc3S(C)(=O)=O)ncn2)nc1C(F)(F)F)N1CC2(COC2)C1` (stereo in doubt) [Compound 11, (R)—N^4-(5-(1-(2-oxa-6-azaspiro[3.3]heptan-6-yl)ethyl)-6-(trifluoromethyl)pyridin-2-yl)-N^6-(3-(methylsulfonyl)pyridin-2-yl)pyrimidine-4,6-diamine], in data set [1], the half-life is > 1.5 h, the Cmax lay within 0.8 to 1.5 µg/mL and the AUC(0-inf) was > 2 µg·h/mL.

With `Cc1nc(Nc2cc(Nc3ncccc3S(C)(=O)=O)ncn2)ccc1[C@H](C)N1CC2(COC2)C1` (stereo in doubt) [Compound 12, N^4-(5-(1-(2-oxa-6-azaspiro[3.3]heptan-6-yl)ethyl)-6-methylpyridin-2-yl)-N^6-(3-(methylsulfonyl)pyridin-2-yl)pyrimidine-4,6-diamine], the “Ligand Efficiency” value on TYK2-JH2 was “††† (†††: >0.39)”. In data set [1], the half-life is < 1 h, the Cmax was > 1.5 µg/mL and the AUC(0-inf) was in the range of 1 to 2 µg·h/mL.

Take `C[C@@H](c1ccc(Nc2cc(Nc3ncccc3S(C)(=O)=O)ncn2)nc1)N1CC2(COC2)C1` [Compound 1, (S)—N^4-(5-(1-(2-oxa-6-azaspiro[3.3]heptan-6-yl)ethyl)pyridin-2-yl)-N^6-(3-(methylsulfonyl)pyridin-2-yl)pyrimidine-4,6-diamine]: at TYK2-JH2, the “Ligand Efficiency” value was “††† (†††: >0.39)”. In addition, the “Brain Kpu, u” value in data set [2] is reported as “†† (††0.1-0.2 u)”. In data set [1], the half-life lay within 1 to 1.5 h, the Cmax is < 0.8 µg/mL and the AUC(0-inf) fell in the range of 1 to 2 µg·h/mL.

In the case of `C[C@@H](c1ccc(Nc2cc(Nc3ncc(F)cc3S(C)(=O)=O)ncn2)nc1)N1CC2(COC2)C1` [Compound 2, (S)—N^4-(5-(1-(2-oxa-6-azaspiro[3.3]heptan-6-yl)ethyl)pyridin-2-yl)-N^6-(5-fluoro-3-(methylsulfonyl)pyridin-2-yl)pyrimidine-4,6-diamine], the “Ligand Efficiency” value at TYK2-JH2 was “††† (†††: >0.39)”. The “Brain Kpu, u” value in data set [2] is given as “† (†<0.1 u)”. Moreover, in data set [1], the half-life lay in the range of 1 to 1.5 h, the Cmax was > 1.5 µg/mL and the AUC(0-inf) is > 2 µg·h/mL.

Turning to `C[C@@H](c1ccc(Nc2cc(Nc3ncccc3S(C)(=O)=O)ncn2)nc1)N(C)C` [Compound 4, (S)—N^4-(5-(1-(dimethylamino)ethyl)pyridin-2-yl)-N^6-(3-(methylsulfonyl)pyridin-2-yl)pyrimidine-4,6-diamine], the “Ligand Efficiency” value at TYK2-JH2 is recorded as “††† (†††: >0.39)”. For the same molecule, the “Brain Kpu, u” value in data set [2] is “††† (††† >0.2 u)”. Besides, in data set [1], the half-life lay within 1 to 1.5 h, the Cmax is < 0.8 µg/mL and the AUC(0-inf) is < 1 µg·h/mL.

`Cc1nc(Nc2cc(Nc3ncccc3S(C)(=O)=O)ncn2)ccc1NC1(C)COC1` [Compound 6, N^4-(6-methyl-5-((3-methyloxetan-3-yl)amino)pyridin-2-yl)-N^6-(3-(methylsulfonyl)pyridin-2-yl)pyrimidine-4,6-diamine]: on TYK2-JH2, the “Ligand Efficiency” value is “††† (†††: >0.39)”. In addition, in data set [1], the half-life was < 1 h, the Cmax is > 1.5 µg/mL and the AUC(0-inf) was > 2 µg·h/mL.

In the case of `C[C@H]1CN(C2CC2)CCN1c1ccc(Nc2cc(Nc3ncccc3S(C)(=O)=O)ncn2)nc1` [Compound 8, (S)—N^4-(5-(4-cyclopropyl-2-methylpiperazin-1-yl)pyridin-2-yl)-N^6-(3-(methylsulfonyl)pyridin-2-yl)pyrimidine-4,6-diamine], the “Ligand Efficiency” value on TYK2-JH2 is recorded as “††† (†††: >0.39)”. Also, in data set [1], the half-life is > 1.5 h, the Cmax was in the range of 0.8 to 1.5 µg/mL and the AUC(0-inf) fell in the range of 1 to 2 µg·h/mL.

Take `Cc1cccc(Nc2cc(Nc3ncccc3S(C)(=O)=O)ncn2)n1` [Compound 18, N^4-(6-methylpyridin-2-yl)-N^6-(3-(methylsulfonyl)pyridin-2-yl)pyrimidine-4,6-diamine]: the “Ligand Efficiency” value at TYK2-JH2 is on record as “††† (†††: >0.39)”. Moreover, in data set [3], the “Brain Kpu, u” value is recorded as “††† (††† >0.2 u)”.

For `Cc1ccnc(Nc2cc(Nc3ccccc3S(C)(=O)=O)ncn2)c1` [Compound 44, N^4-(4-methylpyridin-2-yl)-N^6-(2-(methylsulfonyl)phenyl)pyrimidine-4,6-diamine], the “Ligand Efficiency” value at TYK2-JH2 was “††† (†††: >0.39)”. For the same molecule, in data set [1], the half-life is > 1.5 h, the Cmax is < 0.8 µg/mL and the AUC(0-inf) is < 1 µg·h/mL.
